These molecules were tested on MV4-11 (assay: 7-day proliferation assay (WST-8), cell growth inhibition). Conditions: Homo sapiens, MV4-11, 168 h, MV4-11 cells, 7 days.
Assay type: cell-based
Procedure: The effect of representative Compounds of the Disclosure on cell viability was determined in a 7-day proliferation assay. Cells were maintained in the appropriate culture medium with 10% FBS at 37° C. and an atmosphere of 5% CO2.
Cells were seeded in 96-well flat bottom (Corning COSTAR, Corning, NY, cat#3595) at a density of 2,000-3,000 cells/well in 100 μl of culture medium. Compounds were serially diluted in the appropriate medium, and […] the diluted compounds were added to the appropriate wells of the cell plate. After the addition of compounds, the cells were incubated at 37° C. in an atmosphere of 5% CO2 for 7 days. Cell viability was determined using the WST (2-(2-methoxy-4-nitrophenyl)-3-(4-nitrophenyl)-5-(2,4-disulfophenyl)-2H-tetrazolium, monosodium salt) Cell Counting-8 Kit (Dojindo Molecular Technologies, Inc., Rockville, Md.) according to the manufacturers' instructions.
WST-8 reagent was added to each well at a final concentration of 10% (v/v), and then the plates were incubated at 37° C. for 1-2 hours for color development. The absorbance was measured at 450 nm using a SPECTRAmax PLUS plate reader (Molecular Devices, Sunnyvale, Calif.). The readings were normalized to the DMSO-treated cells and the half maximal inhibitory concentration (IC50) was calculated by nonlinear regression (four parameters sigmoid fitted with variable slope, least squares fit, and no constraint) analysis using the GraphPad Prism 5 software (GraphPad Software, La Jolla, Calif.).

| SMILES | IC50 |
| --- | --- |
| C=CC(=O)N1CCCC(S(=O)(=O)c2ccc(N3CC(F)(CN4CCC([C@@](CNC(C)=O)(c5cccc(F)c5)[C@H]5CCC[C@@H]5NC(=O)OC)CC4)C3)cc2)C1 (stereo partly drawn) [compound 149] | < 500 nM |
| C=CC(=O)N1CCC[C@@H](S(=O)(=O)c2ccc(N3CC(CN4CCC([C@@](C#N)(c5cccc(F)c5)[C@H]5CCC[C@@H]5NC(=O)OC)CC4)C3)cc2)C1 [compound 201] | < 500 nM |
| C=CC(=O)Nc1cc(F)cc(S(=O)(=O)c2ccc(N3CC(F)(CN4CCC([C@@](CN5CCC5)(c5cccc(F)c5)[C@H]5CCC[C@@H]5NC(=O)OC)CC4)C3)c(F)c2)c1 [compound 89] | < 50 nM |
| CC#CC(=O)N1CC(S(=O)(=O)c2ccc(N3CC(O)(CN4CCC([C@@](CNC(C)=O)(c5cccc(F)c5)[C@H]5CCC[C@@H]5NC(=O)OC)CC4)C3)cc2)C1 [compound 207] | < 100 nM |
| C#CC(=O)N1CCCC(S(=O)(=O)c2ccc(N3CC(F)(CN4CCC([C@@](CN5CCC5)(c5cccc(F)c5)[C@H]5CCC[C@@H]5NC(=O)OC)CC4)C3)c(F)c2)C1 (stereo partly drawn) [compound 111] | < 500 nM |
| C=CC(=O)Nc1ccnc(S(=O)(=O)c2ccc(N3CC(F)(CN4CCC([C@@](CN5CCC5)(c5cccc(F)c5)[C@H]5CCC[C@@H]5NC(=O)OC)CC4)C3)c(F)c2)c1 [compound 87] | < 500 nM |
| COC(=O)N[C@H]1CCC[C@@H]1[C@](CN1CCC1)(c1cccc(F)c1)C1CCN(CC2(F)CN(c3ccc(S(=O)(=O)C4CCCN(C(=O)C#CCO)C4)cc3F)C2)CC1 (stereo partly drawn) [compound 121] | < 100 nM |
| C=CC(=O)Nc1cncc(S(=O)(=O)c2ccc(N3CC(F)(CN4CCC([C@@](CN5CCC5)(c5cccc(F)c5)[C@H]5CCC[C@@H]5NC(=O)OC)CC4)C3)c(F)c2)c1 [compound 84] | < 50 nM |
| CC#CC(=O)N1CC[C@@H](S(=O)(=O)c2ccc(N3CC(F)(CN4CCC([C@@](CN5CCC5)(c5cccc(F)c5)[C@H]5CCC[C@@H]5NC(=O)OC)CC4)C3)c(F)c2)C1 [compound 115] | < 50 nM |

Other lines, results leading:

| IC50 | SMILES |
| --- | --- |
| < 10 nM | CC#CC(=O)N1CC[C@@H](S(=O)(=O)c2ccc(N3CC(O)(CN4CCC([C@@](CN5CCC5)(c5cccc(F)c5)[C@H]5CCC[C@@H]5NC(=O)OC)CC4)C3)c(F)c2)C1 [compound 202] |
| < 50 nM | C=CC(=O)N1CCC[C@@H](S(=O)(=O)c2ccc(N3CC(C)(CN4CCC([C@@](CN5CCC5)(c5cccc(F)c5)[C@H]5CCC[C@@H]5NC(=O)OC)CC4)C3)cc2)C1 [compound 211] |
| < 10 nM | CC#CC(=O)N1CC(S(=O)(=O)c2ccc(N3CC(CN4CCC([C@@](CNC(C)=O)(c5cccc(F)c5)[C@H]5CCC[C@@H]5NC(=O)OC)CC4)C3)cc2CN2CC(F)C2)C1 [compound 164] |
| < 10 nM | CC#CC(=O)N1CC(S(=O)(=O)c2ccc(N3CC(CN4CCC([C@@](CNC(C)=O)(c5cccc(F)c5)[C@H]5CCC[C@@H]5NC(=O)OC)CC4)C3)cc2)C1 [compound 130] |
| < 10 nM | C=CC(=O)Nc1cccc(S(=O)(=O)c2ccc(N3CC(CN4CCC([C@@](CN5CCC5)(c5cccc(F)c5)[C@H]5CCC[C@@H]5NC(=O)OC)CC4)C3)c(F)c2)c1 [compound 73] |
| < 10 nM | C=CC(=O)Nc1cc(C(F)(F)F)cc(S(=O)(=O)c2ccc(N3CC(CN4CCC([C@@](CN5CCC5)(c5cccc(F)c5)[C@H]5CCC[C@@H]5NC(=O)OC)CC4)C3)cc2)c1 [compound 78] |
| < 10 nM | COC(=O)N[C@H]1CCC[C@@H]1[C@](CN1CCC1)(c1cccc(F)c1)C1CCN(CC2CN(c3ccc(S(=O)(=O)C4CN(C(=O)/C=C/CN5CCC(O)CC5)C4)cc3)C2)CC1 [compound 98] |
| < 10 nM | C=CC(=O)Nc1cc(S(=O)(=O)c2ccc(N3CC(F)(CN4CCC([C@@](CN5CCC5)(c5cccc(F)c5)[C@H]5CCC[C@@H]5NC(=O)OC)CC4)C3)c(F)c2)ccc1C [compound 97] |

Same assay, conditions: MV4-11 cells, 7 days

| IC50 | SMILES |
| --- | --- |
| < 100 nM | C=CC(=O)N1CCC(S(=O)(=O)c2ccc(N3CC(F)(CN4CCC([C@@](CN5CCC5)(c5cccc(F)c5)[C@H]5CCC[C@@H]5NC(=O)OC)CC4)C3)c(F)c2)C1 (stereo partly drawn) [compound 108] |

— patent publication US20210115018A1, “PIPERIDINE COMPOUNDS AS COVALENT MENIN INHIBITORS” (THE REGENTS OF THE UNIVERSITY OF MICHIGAN, priority 2018, published 2021)
